Patent US20160114000A1 (Merck Sharp & Dohme, published 2016)
*1 amine or outer side, *2 acyl side, *3 side chain or, on linkers, in order; H or OH if unused. Where a SMILES comes first, the peptide text is derived from it. Where no end group is shown, it is not given here. Side-chain parts run from the residue outwards. [ ]: non-standard residue; d: D form. The star is where a group is joined. Phe(4-CH2NH2) = NCc1ccc(C[C@H](N)C(=O)O)cc1; γGlu = O=C(O)[C@H](CCC(=O)[*:2])N[*:1]; Palmitoyl = CCCCCCCCCCCCCCCC(=O)*; Ac4c = NC1(C(=O)O)CCC1

Experiments:
human GCGR = biological target: T1, human GCGR (Homo sapiens, UniProt P47871); test: cAMP protocol, cells expressing human GCGR; type: cell-based; conditions: for hGCGR/hGLP1R (hTone): ratio of EC50 at human GCGR to EC50 at human GLP1R; for EC50: cAMP production, 20% human serum in assay buffer
T1 construct: expressed in transfected cells; grown under Geneticin and Hygromycin selection
Procedure: The cAMP protocol was as follows.
(§1) Peptides were dissolved in 100% DMSO and serially diluted to generate 11 point titrations. The peptide solutions were then transferred into 384-well assay plates (150 nL/well). Assay ready frozen cells expressing human GLP-1R or human GCGR were suspended in growth media consisting of DMEM/F12 medium (GIBCO), 10% FBS (GIBCO), lx P/S (GIBCO), 800 μg/mL Geneticin (GIBCO), and 300 μg/mL Hygromycin (Invitrogen). Cells were then diluted in assay buffer consisting of PBS (GIBCO), 7.5% BSA (Perkin Elmer), 100 μM RO 20-1724 (Sigma), and 20% human serum (MP Biomedical). The cell suspensions (15 μL) were then added to the assay plates containing the peptide solutions (30,000 cells/well for human GCGR; 20,000 cells/well for GLP1R). The cells were incubated for 1 hour at room temperature in the dark. Production of cAMP was determined using HitHunter™ cAMPXS kits (DiscoverX). ED buffer (20 μL) was then added to each well and the plates were incubated for 1 hour at room temperature in the dark. Subsequently, EA buffer (20 μL) was added to each well, and the plates were incubated for 1-18 hours at room temperature in the dark. Luminescence was measured using an EnVision Multilabel plate reader (Perkin Elmer). EC50 values were calculated using ADA data analyzer software.

[1] = test system: diet-induced obese (DIO) mice (strain C57Bl6/NTac); test: Cumulative body weight change (grams) in DIO mice, Example 18; type: in vivo; conditions: 9 nmol/kg daily, day 9
Procedure: Mice were administered a vehicle control or a dose of a peptide daily for nine days. […] The peptide of SEQ ID NO: 9 was administered at doses of 9 and 25 nmol/kg. Cumulative body weight change (grams) was measured each day of the study except on day 3. Results are shown in FIG. 1 and are expressed as mean±SEM.

[2] = test system: DIO mice (strain C57Bl6/NTac); test: Body weight change (%) relative to vehicle in DIO mice, second study, Example 19; type: in vivo; conditions: eight days
Procedure: In addition, the peptide of SEQ ID NO: 8 was administered at 15 nmol/kg, while the peptide of SEQ ID NOs: 10 and 11 were administered at 3 nmol/kg. Body weight was measured daily for eight days and body weight change is expressed as percent relative to vehicle (FIG. 2).

[3] = test system: DIO mice (strain C57Bl6/NTac); test: Ambient glucose levels in DIO mice, Example 21; type: in vivo; conditions: 9 nmol/kg
Procedure: In addition to cumulative body weight change, ambient glucose levels of the DIO mice (strain C57Bl6/NTac) were measured periodically throughout the study.

human GLP-1R = biological target: T2, human GLP-1R (Homo sapiens, UniProt P43220); test: cAMP protocol, cells expressing human GLP-1R; type: cell-based; conditions: cAMP production, 20% human serum in assay buffer; read-out: GLPR1 EC50 (nM) human
T2 construct: expressed in transfected cells; grown under Geneticin and Hygromycin selection
Procedure: The cAMP protocol was as follows.
as §1

human glucagon receptor = human glucagon receptor (human, UniProt P47871 26-477); test: cell-based or functional assay
human GLP-1 receptor = human GLP-1 receptor (human, UniProt P43220 24-463); test: cell-based or functional assay

T1 sequence (P47871 26-477): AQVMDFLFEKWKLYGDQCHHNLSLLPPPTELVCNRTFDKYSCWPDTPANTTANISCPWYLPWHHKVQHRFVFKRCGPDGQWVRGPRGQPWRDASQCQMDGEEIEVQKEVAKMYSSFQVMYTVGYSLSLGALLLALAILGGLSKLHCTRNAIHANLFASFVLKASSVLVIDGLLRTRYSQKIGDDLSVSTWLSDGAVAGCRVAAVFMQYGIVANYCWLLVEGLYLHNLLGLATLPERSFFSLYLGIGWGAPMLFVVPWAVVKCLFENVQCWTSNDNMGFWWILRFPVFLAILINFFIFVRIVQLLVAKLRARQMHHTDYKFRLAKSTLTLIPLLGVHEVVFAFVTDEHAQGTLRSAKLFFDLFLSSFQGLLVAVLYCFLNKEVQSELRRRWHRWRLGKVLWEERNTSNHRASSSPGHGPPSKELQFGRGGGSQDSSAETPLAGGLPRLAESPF
human glucagon receptor, sequence (P47871 26-477): as above
T2 sequence (P43220 24-463): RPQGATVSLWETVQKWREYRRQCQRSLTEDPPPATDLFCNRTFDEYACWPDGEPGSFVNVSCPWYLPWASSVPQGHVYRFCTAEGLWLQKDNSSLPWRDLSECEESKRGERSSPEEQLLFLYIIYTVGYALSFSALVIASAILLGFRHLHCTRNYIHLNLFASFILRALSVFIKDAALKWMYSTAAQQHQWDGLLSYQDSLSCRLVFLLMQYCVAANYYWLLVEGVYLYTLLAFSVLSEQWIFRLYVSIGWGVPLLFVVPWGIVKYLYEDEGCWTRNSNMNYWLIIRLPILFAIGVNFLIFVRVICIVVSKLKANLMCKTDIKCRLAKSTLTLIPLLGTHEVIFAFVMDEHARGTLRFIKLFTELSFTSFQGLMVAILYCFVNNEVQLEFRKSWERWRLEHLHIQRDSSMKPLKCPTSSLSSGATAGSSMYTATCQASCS

CCCCCCCCCCCCCCCC(=O)N[C@@H](CCC(=O)N[C@@H](CCC(=O)NCCCC[C@H](NC(=O)[C@H](CC(=O)O)NC(=O)[C@H](CO)NC(=O)[C@@H](NC(=O)[C@H](Cc1ccccc1)NC(=O)[C@@H](NC(=O)CNC(=O)[C@H](CCC(N)=O)NC(=O)[C@@H](CO)NC(=O)[C@@H](N)Cc1c[nH]cn1)[C@@H](C)O)[C@@H](C)O)C(=O)N[C@@H](CO)C(=O)N[C@@H](CCCCN)C(=O)N[C@@H](Cc1ccc(O)cc1)C(=O)N[C@@H](CC(C)C)C(=O)N[C@@H](CC(=O)O)C(=O)N[C@H](C(=O)N[C@@H](CCCNC(=N)N)C(=O)N[C@@H](C)C(=O)N[C@@H](C)C(=O)N[C@@H](CCC(N)=O)C(=O)N[C@@H](CC(=O)O)C(=O)N[C@@H](Cc1ccccc1)C(=O)N[C@H](C(=O)N[C@@H](CCC(N)=O)C(=O)N[C@@H](Cc1c[nH]c2ccccc12)C(=O)N[C@@H](CC(C)C)C(=O)N[C@@H](CC(C)C)C(=O)N[C@@H](CC(=O)O)C(=O)N[C@H](C(N)=O)[C@@H](C)O)C(C)C)C(C)C)C(=O)O)C(=O)O [SEQ ID NO: 8]
hGCGR/hGLP1R (hTone) (human GCGR): 0.60
weight loss [1]: 8 grams
weight loss, percent relative to vehicle ([2]; 9 nmol/kg daily): approximately 17%
weight loss, percent relative to vehicle ([2]; 15 nmol/kg daily): approximately 25%
decrease in ambient glucose compared to vehicle ([3]; day 9): -72 mg/dL

CCCCCCCCCCCCCCCC(=O)N[C@@H](CCC(=O)N[C@@H](CCC(=O)NCc1ccc(C[C@H](NC(=O)[C@H](CC(=O)O)NC(=O)[C@H](CO)NC(=O)[C@@H](NC(=O)[C@H](Cc2ccccc2)NC(=O)[C@@H](NC(=O)CNC(=O)[C@H](CCC(N)=O)NC(=O)[C@@H](CO)NC(=O)[C@@H](N)Cc2c[nH]cn2)[C@@H](C)O)[C@@H](C)O)C(=O)N[C@@H](CO)C(=O)N[C@@H](CCCCN)C(=O)N[C@@H](Cc2ccc(O)cc2)C(=O)N[C@@H](CC(C)C)C(=O)N[C@@H](CC(=O)O)C(=O)N[C@@H](C)C(=O)N[C@@H](CCCNC(=N)N)C(=O)N[C@@H](C)C(=O)N[C@@H](C)C(=O)N[C@@H](CCC(N)=O)C(=O)N[C@@H](CC(=O)O)C(=O)N[C@@H](Cc2ccccc2)C(=O)N[C@H](C(=O)N[C@@H](CCC(N)=O)C(=O)N[C@@H](Cc2c[nH]c3ccccc23)C(=O)N[C@@H](CC(C)C)C(=O)N[C@@H](CC(C)C)C(=O)N[C@@H](CC(=O)O)C(=O)N[C@H](C(N)=O)[C@@H](C)O)C(C)C)cc1)C(=O)O)C(=O)O [SEQ ID NO: 17, His^1-D-Ser^2-Gln-Gly-Thr-Phe-Thr-Ser-Asp-pAF^10(γGlu-γGlu-C16)-Ser-Lys-Tyr-Leu-Asp^15-Ala^16-Arg-Ala-Ala-Gln-Asp-Phe^22-Val^23-Gln-Trp^25-Leu-Leu-Asp-Thr-CONH2] (H-H[dS]QGTFTSD[Phe(4-CH2NH2)]([γGlu-γGlu-Palmitoyl])SKYLDARAAQDFVQWLLDT-NH2)
EC50 (human GCGR): 0.05 nM
hGCGR/hGLP1R (hTone) (human GCGR): 0.98
EC50 (human GLP-1R): 0.05 nM

CCCCCCCCCCCCCCCC(=O)N[C@@H](CCC(=O)N[C@@H](CCC(=O)NCCCC[C@H](NC(=O)[C@H](CC(=O)O)NC(=O)[C@H](CO)NC(=O)[C@@H](NC(=O)[C@H](Cc1ccccc1)NC(=O)[C@@H](NC(=O)CNC(=O)[C@H](CCC(N)=O)NC(=O)[C@@H](CO)NC(=O)[C@@H](N)Cc1c[nH]cn1)[C@@H](C)O)[C@@H](C)O)C(=O)N[C@@H](CO)C(=O)N[C@@H](CCCCN)C(=O)N[C@@H](Cc1ccc(O)cc1)C(=O)N[C@@H](CC(C)C)C(=O)N[C@@H](CC(=O)O)C(=O)N[C@@H](CCC(=O)O)C(=O)N[C@@H](CCCNC(=N)N)C(=O)N[C@@H](C)C(=O)N[C@@H](C)C(=O)N[C@@H](CCC(N)=O)C(=O)N[C@@H](CC(=O)O)C(=O)N[C@@H](Cc1ccccc1)C(=O)N[C@H](C(=O)N[C@@H](CCC(N)=O)C(=O)N[C@@H](Cc1c[nH]c2ccccc12)C(=O)N[C@@H](CC(C)C)C(=O)N[C@@H](CCS(C)(=O)=O)C(=O)N[C@@H](CC(=O)O)C(=O)N[C@H](C(N)=O)[C@@H](C)O)C(C)C)C(=O)O)C(=O)O [SEQ ID NO: 15]
EC50 (human GCGR): 0.02 nM
hGCGR/hGLP1R (hTone) (human GCGR): 1.10
EC50 (human GLP-1R): 0.02 nM

CCCCCCCCCCCCCCCC(=O)N[C@@H](CCC(=O)NCCCC[C@H](NC(=O)[C@H](CC(=O)O)NC(=O)[C@H](CO)NC(=O)[C@@H](NC(=O)[C@H](Cc1ccccc1)NC(=O)[C@@H](NC(=O)CNC(=O)[C@H](CCC(N)=O)NC(=O)[C@@H](CO)NC(=O)[C@@H](N)Cc1c[nH]cn1)[C@@H](C)O)[C@@H](C)O)C(=O)N[C@@H](CO)C(=O)N[C@@H](CCCCN)C(=O)N[C@@H](Cc1ccc(O)cc1)C(=O)N[C@@H](CC(C)C)C(=O)N[C@@H](CC(=O)O)C(=O)N[C@@H](C)C(=O)N[C@@H](CCCNC(=N)N)C(=O)N[C@@H](C)C(=O)N[C@@H](C)C(=O)N[C@@H](CCC(N)=O)C(=O)N[C@@H](CC(=O)O)C(=O)N[C@@H](Cc1ccccc1)C(=O)N[C@H](C(=O)N[C@@H](CCC(N)=O)C(=O)N[C@@H](Cc1c[nH]c2ccccc12)C(=O)N[C@@H](CC(C)C)C(=O)N[C@@H](CC(C)C)C(=O)N[C@@H](CC(=O)O)C(=O)N[C@H](C(N)=O)[C@@H](C)O)C(C)C)C(=O)O [SEQ ID NO: 6]
hGCGR/hGLP1R (hTone) (human GCGR): 0.88
weight loss [1]: 10.5 grams
weight loss, percent relative to vehicle ([2]; 9 nmol/kg daily): approximately 20%
decrease in ambient glucose compared to vehicle ([3]; day 7 of dosing): -60 mg/dL

B1: Co-agonist Peptide 13 (peptide)
peptide: H[Ac4c]QGTFTSDK([γGlu-γGlu-Palmitoyl])SKYLDERAAQDFVQWLLDT-NH2
modifications: N-terminus assumed
SMILES: CCCCCCCCCCCCCCCC(=O)N[C@@H](CCC(=O)N[C@@H](CCC(=O)NCCCC[C@H](NC(=O)[C@H](CC(=O)O)NC(=O)[C@H](CO)NC(=O)[C@@H](NC(=O)[C@H](Cc1ccccc1)NC(=O)[C@@H](NC(=O)CNC(=O)[C@H](CCC(N)=O)NC(=O)C1(NC(=O)[C@@H](N)Cc2c[nH]cn2)CCC1)[C@@H](C)O)[C@@H](C)O)C(=O)N[C@@H](CO)C(=O)N[C@@H](CCCCN)C(=O)N[C@@H](Cc1ccc(O)cc1)C(=O)N[C@@H](CC(C)C)C(=O)N[C@@H](CC(=O)O)C(=O)N[C@@H](CCC(=O)O)C(=O)N[C@@H](CCCNC(=N)N)C(=O)N[C@@H](C)C(=O)N[C@@H](C)C(=O)N[C@@H](CCC(N)=O)C(=O)N[C@@H](CC(=O)O)C(=O)N[C@@H](Cc1ccccc1)C(=O)N[C@H](C(=O)N[C@@H](CCC(N)=O)C(=O)N[C@@H](Cc1c[nH]c2ccccc12)C(=O)N[C@@H](CC(C)C)C(=O)N[C@@H](CC(C)C)C(=O)N[C@@H](CC(=O)O)C(=O)N[C@H](C(N)=O)[C@@H](C)O)C(C)C)C(=O)O)C(=O)O
GCGR EC50 (nM) human; cAMP production (HitHunter cAMPXS), 20% human serum (human glucagon receptor): 0.06 nM
hGCGR/hGLP1R (hTone): ratio of cAMP EC50 at human GCGR to cAMP EC50 at human GLP1R (human glucagon receptor): 1.25 ratio
GLPR1 EC50 (nM) human; cAMP production (HitHunter cAMPXS), 20% human serum (human GLP-1 receptor): 0.05 nM

B2: Co-agonist Peptide 3 (peptide)
peptide: H[dS]QGTFTSDK([γGlu-γGlu-Palmitoyl])SKYLDVRAAQDFVQWLLDT-NH2
modifications: N-terminus assumed
SMILES: CCCCCCCCCCCCCCCC(=O)N[C@@H](CCC(=O)N[C@@H](CCC(=O)NCCCC[C@H](NC(=O)[C@H](CC(=O)O)NC(=O)[C@H](CO)NC(=O)[C@@H](NC(=O)[C@H](Cc1ccccc1)NC(=O)[C@@H](NC(=O)CNC(=O)[C@H](CCC(N)=O)NC(=O)[C@@H](CO)NC(=O)[C@@H](N)Cc1c[nH]cn1)[C@@H](C)O)[C@@H](C)O)C(=O)N[C@@H](CO)C(=O)N[C@@H](CCCCN)C(=O)N[C@@H](Cc1ccc(O)cc1)C(=O)N[C@@H](CC(C)C)C(=O)N[C@@H](CC(=O)O)C(=O)N[C@H](C(=O)N[C@@H](CCCNC(=N)N)C(=O)N[C@@H](C)C(=O)N[C@@H](C)C(=O)N[C@@H](CCC(N)=O)C(=O)N[C@@H](CC(=O)O)C(=O)N[C@@H](Cc1ccccc1)C(=O)N[C@H](C(=O)N[C@@H](CCC(N)=O)C(=O)N[C@@H](Cc1c[nH]c2ccccc12)C(=O)N[C@@H](CC(C)C)C(=O)N[C@@H](CC(C)C)C(=O)N[C@@H](CC(=O)O)C(=O)N[C@H](C(N)=O)[C@@H](C)O)C(C)C)C(C)C)C(=O)O)C(=O)O
GCGR EC50 (nM) human; cAMP production (HitHunter cAMPXS), 20% human serum (human glucagon receptor): 0.08 nM
hGCGR/hGLP1R (hTone): ratio of cAMP EC50 at human GCGR to cAMP EC50 at human GLP1R (human glucagon receptor): 0.6 ratio
GLPR1 EC50 (nM) human; cAMP production (HitHunter cAMPXS), 20% human serum (human GLP-1 receptor): 0.13 nM
